For 100 compounds, logP and logD results are on record in the SangsterLogP compilation.

Assay in the first data set: not given
Settings: not given
Turning to `O=[N+]([O-])c1cccc(Cl)c1`, the logP was 2.59. On the same count and under the same terms, to `CN(C)c1cccc([N+](=O)[O-])c1` belongs 2.16. For the compound `O=[N+]([O-])c1ccc(Cl)cc1`, the logP turned out to be 2.45. `COc1cccc([N+](=O)[O-])c1` returned a logP of 2.09.

Consider `O=[N+]([O-])c1ccccc1Br`, for which the logP came out at 2.5.

Assay in another data set: not given
Settings: not given
The source holds these as a separate data set.
In turn, `c1ccc(C2CNCCO2)cc1` (stereo not given) registered a logP of 1.11. Compound `c1ccc(CN2CCOCC2)cc1` yielded a logP of 1.58. `CC(C)N1CCOC(c2ccccc2)C1` (stereo not given) returned a logP of 2.3. As for `FC(F)(F)c1cccc(C2CNCCO2)c1` (stereo not given), the logP is 2.18.

`Fc1cccc(C2CNCCO2)c1` (stereo not given): the logP was determined as 1.42.

Assay in the next data set: not given
Settings: not given
The source holds these as a separate data set.
For the compound `COC(=O)CS(=O)c1ccccc1[N+](=O)[O-]` (stereo not given), the logP worked out at 0.98. As to `COC(=O)CS(=O)(=O)c1ccc([N+](=O)[O-])cc1`, the logP worked out at 0.92.

In turn, `COC(=O)CS(=O)c1ccc([N+](=O)[O-])cc1` (stereo not given) came in with a logP of 0.98. Take `COC(=O)CSc1ccc([N+](=O)[O-])cc1`: the logP came to 2.29. Consider `COC(=O)CS(=O)c1ccc(Cl)cc1[N+](=O)[O-]` (stereo not given), for which the logP turned out to be 1.69.

Assay in another data set: not given
Settings: not given
This is another data set of the same source.
`Nc1ccc(-c2ccc(N)cc2)cc1` showed a logP of 1.53. On to `CC(C(=O)O)c1ccc(N2CC=CC2)c(Cl)c1` (stereo not given), for which the logP was 3.58. Take `CCN(CC)CC`: the logP stood at 1.36.

In the case of `CN(C)Cc1ccccc1`, the logP turned out to be 1.91. As to `CCn1ccc(NS(=O)(=O)c2ccc(N)cc2)nc1=O`, the logP was -0.2.

A short description of the next data set: method code SF-HPLC, from PMID: 1293941.
Settings: not given
For the compound `CCCCCCOC(=O)c1ccc(N)cc1`, the logP came out at 3.95. `CCCCCOC(=O)c1ccc(N)cc1` returned a logP of 3.48.

In the case of `CCCOC(=O)c1ccc(N)cc1`, the log partition coefficient (logP) came out at 2.43. `CCCCCCCCOC(=O)c1ccc(N)cc1` returned a logP of 5.02. `CCCCCCCOC(=O)c1ccc(N)cc1` displayed a logP of 4.5.

Assay in the next data set: not given
Settings: not given
This is another data set of the same source.
The compound `CC(C)(C)c1ccncc1` returned a logP of 2.42. In turn, `Brc1cccnc1` yielded a logP of 1.5. As to `O=Cc1cccnc1`, the logP turned out to be 0.29. Take `Nc1cccnc1`: the logP was 0.05.

`Brc1ccncc1` displayed a logP of 1.49.

The next data set in a line: method code SF-AS, from DOI: 10.1007/bf01648987.
Settings: not given
As to `CCOC(=O)/C=C/c1ccccc1`, the logP stood at 2.91. For `Cc1cc(Cl)ccc1O`, the logP was 2.78. The same measure, in the same setting: the value for `CC(=O)NC1CC1c1ccccc1` (stereo not given) was 1.43. Consider `Oc1ccc(Br)cc1Br`, for which the logP is 3.48. On the same count and under the same terms, to `CN(C)c1ccccc1` belongs 2.29.

The nature of the next data set: method code SF-AS, from DOI: 10.1007/bf01964075. The conditions noted are these: pH 2.1.
In turn, `CNC(=O)[C@H](Cc1ccc(O)cc1)NC(C)=O` came in with a logD of -0.32.

`CNC(=O)[C@@H](NC(C)=O)C(C)C` gave a log distribution coefficient (logD) of -0.35. Compound `CNC(=O)C1CCCN1C(C)=O` (stereo not given) showed a logD of -1.19. On the same count and under the same terms, to `CC[C@H](C)[C@H](NC(C)=O)C(=O)NC` belongs 0.14; to `Oc1cccc(O)c1`, 0.83.

A further data set is described as follows: method code SF, from DOI: 10.1016/s0045-6535(97)00338-x.
Settings: not given
Compound `O=[N+]([O-])c1cc(F)ccc1O` displayed a logP of 1.88.

As for `O=S(=O)(CBr)c1ccc(F)cc1`, the logP was determined as 1.74.

Compound `CC(=O)Oc1ccc(F)cc1` came in with a logP of 1.41. Still for that read-out and setting: to `CC(=O)Nc1ccc(F)cc1F` belongs 1.5.

Staying with this data set, now noted: pH 2.0.
Compound `O=C(O)COc1ccc(F)cc1` registered a logD of 1.57.

The next data set in a line: method code SF-AS, from DOI: 10.1016/s0045-6535(98)00368-3.
Settings: not given
Regarding `COC(=O)c1ccccc1S(N)(=O)=O`, the logP was 0.01. Compound `NS(=O)(=O)c1ccccc1Cl` registered a logP of 0.79. Turning to `COC(=O)c1ccccc1CS(N)(=O)=O`, the logP was 0.37.

The data set is the same for the next values; noted with them: pH 2.0.
The compound `COc1cc(OC)nc(NC(=O)NS(=O)(=O)c2ccccc2Cl)n1` displayed a logD of 1.95. `COC(=O)c1ccccc1S(=O)(=O)NC(=O)Nc1nc(OC)cc(OC)n1` came in with a logD of 1.78.

Another data set is described as follows: method code SF-HPLC, from DOI: 10.1002/jps.10112, PMID: 12115830. The note with it: pH 7.4.
In turn, `CCSSc1ncc[nH]1` returned a logD of 2.13.

As to `CC(O)C(C)SSc1ncc[nH]1` (stereo not given), the logD stood at 1.39. Compound `CCC(C)SSc1ncc[nH]1` (stereo not given) returned a logD of 2.76. Compound `c1ccc(CSSc2ncc[nH]2)cc1` gave a logD of 3.05. Same read-out and setting: to `CC(C)(C)SSc1ncc[nH]1` belongs 2.56.

A further data set can be described thus: method code SF-AS, from DOI: 10.1002/em.2850200210, PMID: 1505530.
Settings: not given
Regarding `O=[N+]([O-])c1ccc2ccccc2c1`, the logP was found to be 3.24. Same read-out and setting: the value for `O=[N+]([O-])c1cccc2c([N+](=O)[O-])cccc12` was 2.58; that for `O=[N+]([O-])c1ccc2c(c1)Cc1cc([N+](=O)[O-])ccc1-2` was 3.35. With `O=C1c2cc([N+](=O)[O-])ccc2-c2ccc([N+](=O)[O-])cc21`, the logP amounted to 2.84. `O=[N+]([O-])c1cccc2cccnc12`: the logP came to 1.44.

The next data set in a line: method code SF-AS, from DOI: 10.1007/s001289900104, PMID: 8661852.
Settings: not given
`Clc1nc(Cl)nc(Nc2ccccc2)n1` yielded a logP of 3.03. `O=[N+]([O-])c1c(O)nc(-c2ncncn2)nc1O` showed a logP of 2.02.

Compound `Clc1ncc(-c2ncncn2)c(Cl)n1` came in with a logP of 1.32.

In turn, `[N-]=[N+]=Nc1nc(N=[N+]=[N-])nc(Nc2ccccc2)n1` showed a logP of 3.88. Take `CN(c1ccccc1)c1nc(Cl)nc(Cl)n1`: the logP came out at 3.07.

The nature of the next data set: method code SF-AS, from DOI: 10.1002/jps.2600630206, PMID: 4204981.
Settings: not given
With `O=C1CC(C(=O)O)Oc2ccc(Cl)cc21` (stereo not given), the logP is 1.77. Consider `CC(Oc1ccc(Cl)cc1)C(=O)O` (stereo not given), for which the logP was determined as 2.31. For `O=C(O)C1Cc2cc(Cl)ccc2O1` (stereo not given), the logP amounted to 2.11.

With `O=C(O)C1COc2ccccc2O1` (stereo not given), the logP was determined as 1.4. In turn, `O=C(O)C1CCc2cc(Cl)ccc2O1` (stereo not given) gave a logP of 2.4.

Another data set is described as follows: method code SF, from DOI: 10.1016/0165-1218(78)90089-7, PMID: 362190.
Settings: not given
`CCN(CC)CCCNC(=O)C(=O)NN=Cc1ccc([N+](=O)[O-])o1` had a logP of -1.12. Compound `C=CCOCC(O)Cn1ccnc1[N+](=O)[O-]` (stereo not given) displayed a logP of 0.3.

On to `Cc1nc([N+](=O)[O-])cn1CCO`, for which the log partition coefficient (logP) was -0.59.

`NC(=O)/C(=C\c1ccc([N+](=O)[O-])o1)c1ccco1` returned a logP of 0.15. `Cn1cnc([N+](=O)[O-])c1Cl` yielded a logP of 0.3.

The nature of a further data set: method code SF-AS, from DOI: 10.1016/j.ejps.2010.09.003, PMID: 20854904. The note with it: pH 10.0.
The compound `CN(C)CCC(=O)c1ccccc1` had a logD of 1.77. For the compound `O=C(CCN1CCCCC1)c1ccccc1`, the logD is 2.4. Take `O=C(CCN1CCCC1)c1ccccc1`: the logD is 1.91. `CCN(CC)CCC(=O)c1ccccc1`: the log distribution coefficient (logD) turned out to be 1.59.

Still in this data set, the particulars now being: pH 11.0.
`O=C(CCNC1CCCCC1)c1ccccc1` had a logD of 2.57.

Another data set can be described thus: method code SF, from DOI: 10.1248/yakushi1947.96.10_1169, PMID: 1033993. The conditions noted are these: pH 0.7.
`C=CCC1(CC=C)C(=O)NC(=O)N(C)C1=O` came in with a logD of 1.55. As for `CCC1(CCC(C)C)C(=O)NC(=O)N(C)C1=O` (stereo not given), the logD came out at 2.45. The compound `CCC1(CC)C(=O)NC(=O)N(C)C1=O` came in with a logD of 1.15.

As for `CCCC(C)C1(CC)C(=O)NC(=O)N(C)C1=O` (stereo not given), the logD stood at 2.45. With `CCCC1(CC)C(=O)NC(=O)N(C)C1=O` (stereo not given), the logD was found to be 1.65.

A short description of a further data set: method code SF-AS, from DOI: 10.1016/j.bioorg.2006.09.003, PMID: 17078995. The note with it: pH 7.4.
With `CCCC(=O)OCCc1ccc(O)c(OC)c1`, the logD was 2.54. `Cc1cc(CCO)ccc1O` registered a logD of 0.5. `CC(=O)OCCc1ccc(O)c(O)c1` showed a logD of 0.95. The same measure, in the same setting: the value for `CCC(=O)OCCc1ccc(O)c(O)c1` was 1.2. The compound `CCCC(=O)OCCc1ccc(O)c(O)c1` returned a logD of 1.77.

The nature of the next data set: from Rich, R. (1990). Partition coefficients of quinones and their relation to biochemical reactivity. In Lenaz, G. (Ed.), Highlights in Ubiquinone Research: Proceedings of the International Symposium, ….
Settings: not given
`Cc1c(O)ccc(O)c1C` yielded a logP of 1.36. Turning to `Cc1cc(O)cc(C)c1O`, the logP was 1. Compound `Cc1cc(O)ccc1O` had a logP of 0.91. Consider `Cc1c(C)c(O)c(C)c(C)c1O`, for which the logP was determined as 1.8. Still for that read-out and setting: to `CC1=CC(=O)C=C(C)C1=O` belongs 0.95.

The nature of another data set: method code SF, from Huang, Q.; Wang, L.; Han, S.; Wang, G.; Gao, H. (1993). Quantitative relation between molecular structures and the hydrophobic parameters of halogenated arenes. Chemical Journal of Chinese ….
Settings: not given
`Clc1cccc(Br)c1` gave a logP of 3.83. `Brc1cccc(Br)c1Br` registered a logP of 4.98. Turning to `Brc1ccc(Br)c(Br)c1`, the logP was 4.98. Compound `Brc1cc(Br)cc(Br)c1` yielded a logP of 4.98. `Clc1ccccc1Br` displayed a logP of 3.83.
